Laboratory results reported in US20230263757A1, “DISINFECTING WIPE KIT FOR CENTRAL VENOUS ACCESS DEVICES” (SterileCare Inc., priority 2022, published 2023).
Structures can show the parent of a compound that is named as a salt. Where two headings read alike, the source gives them in different places.

Experiments:
C. albicans ON47 = test: MIC, micro broth dilution; format: cell-based, Candida albicans; conditions: alone
Method: (§1) An assay was made using a minimum inhibitory concentration (MIC) and minimum bactericidal concentration (MBC) and minimum fungicidal concentration (MFC) determination. The MIC was determined by the micro broth dilution method in 96-well plates. Serial two-fold dilutions of tetrasodium EDTA (from 2% to 0.015%), ethanol (from 50% to 0.1%) and chlorhexidine HCl (from 100 μg/mL to 0.025 μg/mL) were prepared in MH broth with a final volume of 90 μL per well. A 10 μL containing 1×10^5 bacterial cells or 2×10^3 fungal cells were added to each well. The inoculated plates were covered with a lid, sealed with Parafilm, and incubated for 24 h at 37° C. with slight rocking on a tilting platform shaker. After incubation, the optical density at 600 nm (OD 600) of the cultures in each well was measured using an xMark™ Microplate Absorbance Spectrophotometer (Bio-Rad). […] MBCs and MFCs were determined by transferring 100 μL from each well with no apparent growth onto appropriate agar plates, followed by incubation for 24 h at 37° C.

MRSA ON184 [1] = test: MBC/MFC determination; format: cell-based, S. aureus; conditions: alone
Method: as §1

S. epidermidis SK9 = test: MBC/MFC determination; format: cell-based, Staphylococcus epidermidis; conditions: alone
Method: as §1

[2] = system: Staphylococcus aureus ON89; test: FBEC index, checkerboard on biofilms; format: cell-based; conditions: for biofilm eradication concentration in combination (FBEC): EDTA + ethanol
Method: (§3) In step (4), microtiter plates are incubated at 37° C. for 24 h. then (6), after incubation, the bacterial and fungal cells were dislodged from the pegs into the recovery medium described above.
(§4) Three 10-μL aliquots, for a total of 30 μL from each well of recovery medium, were spotted on MH agar plates and incubated for 24 h at 37° C. […] The FBEC determination is a modification of the FICI.

Escherichia coli SK2 = test: FBEC index, checkerboard on biofilms; format: cell-based; conditions: for biofilm eradication concentration in combination (FBEC): EDTA + ethanol
Method: as §3, §4

Proteus mirabilis ON153 [3] = test: MBC/MFC determination; format: cell-based; conditions: alone
Method: as §1

[4] = system: Staphylococcus epidermidis ON170; test: MBC/MFC determination; format: cell-based; conditions: alone
Method: as §1

[5] = system: Staphylococcus aureus ON89; test: MBC/MFC determination; format: cell-based; conditions: alone
Method: as §1

Serratia marcescens SK2 [6] = test: MBC/MFC determination; format: cell-based; conditions: alone
Method: as §1

[7] = system: Stenotrophomonas maltophilia ON17; test: MBC/MFC determination; format: cell-based; conditions: alone
Method: as §1

Escherichia coli ON29 [8] = test: MBC/MFC determination; format: cell-based; conditions: alone
Method: as §1

[9] = system: Pseudomonas aeruginosa SK1; test: MBC/MFC determination; format: cell-based; conditions: alone
Method: as §1

Candida albicans SK4b [10] = test: MBC/MFC determination; format: cell-based; conditions: alone
Method: as §1

[11] = system: 48-h-old biofilms of all of the test organisms; test: Rapid biofilm eradication, 2-h exposure; format: cell-based; conditions: two h of exposure; preformed biofilms
Method: Determining rapid biofilm eradication by tetrasodium EDTA, ethanol, and chlorhexidine HCl alone and in combination was performed. After biofilm formation, control pegs (n=6) were removed and analyzed to determine the starting biofilm cell numbers via the drop dilution method. The 48-h old biofilms on the pegs were exposed to different concentrations of test antimicrobials, dissolved in an appropriate growth medium, for two h to evaluate their efficacy alone and in combination. Antimicrobial solutions tested against each organism included each agent alone at the MBEC, double combinations at the FBEC, and triple combinations ranging from 5 to 20% ethanol, 2.5-5 μg/mL chlorhexidine HCl and 1-3% tetrasodium EDTA. Following treatment, pegs were washed twice with sterile PBS, and the biofilm cells were dislodged into recovery medium and enumerated as described above.
The method for rapid biofilm eradication ability of test antimicrobials alone and in combination against 48-h-old biofilms within two h exposure time included (1) choosing different concentrations of test antimicrobials to assess their potency in eradicating preformed biofilms of study organisms within two h. Then (2) the quantitative recovery from biofilms following exposure to the antimicrobial solutions for bacterial strains (FIGS. 9A-9B) and fungal strains (FIG. 5) was evaluated.

Proteus mirabilis ON153 [12] = test: Checkerboard, FMCI; format: cell-based; conditions: for microbicidal concentration in combination: EDTA + ethanol
Method: as §1
(§2) A fourth composition and solution included tetrasodium EDTA with ethanol or chlorhexidine HCl. This fourth composition and solution were created using checkerboard titration methods using micro broth dilution in 96-well microtiter plates. The concentrations of antimicrobials used were based on previously determined MIC values. Briefly, 200 μL, of two-fold dilutions of tetrasodium EDTA and ethanol or chlorhexidine HCl were prepared in MH or MH II broth with standardized cell suspension. […] Microtiter plates were incubated at 37° C. for 24 h, and the results were analyzed. Each test was performed in duplicate and included a growth control without adding any antimicrobials.

[13] = system: Staphylococcus epidermidis ON170; test: Checkerboard, FMCI; format: cell-based; conditions: for microbicidal concentration in combination: EDTA + ethanol
Method: as §1, §2

[14] = system: Staphylococcus aureus ON89; test: Checkerboard, FMCI; format: cell-based; conditions: for microbicidal concentration in combination: EDTA + ethanol
Method: as §1, §2

Serratia marcescens SK2 [15] = test: Checkerboard, FMCI; format: cell-based; conditions: for microbicidal concentration in combination: EDTA + ethanol
Method: as §1, §2

[16] = system: Stenotrophomonas maltophilia ON17; test: Checkerboard, FMCI; format: cell-based; conditions: for microbicidal concentration in combination: EDTA + ethanol
Method: as §1, §2

Escherichia coli ON29 [17] = test: Checkerboard, FMCI; format: cell-based; conditions: for microbicidal concentration in combination: EDTA + ethanol
Method: as §1, §2

[18] = system: Pseudomonas aeruginosa SK1; test: Checkerboard, FMCI; format: cell-based; conditions: for microbicidal concentration in combination: EDTA + ethanol
Method: as §1, §2

Candida albicans SK4b [19] = test: Checkerboard, FMCI; format: cell-based; conditions: for microbicidal concentration in combination: EDTA + ethanol
Method: as §1, §2

MRSA ON184 [20] = test: Checkerboard titration, FICI; format: cell-based, S. aureus; conditions: for concentration in combination: EDTA + ethanol
Method: as §2

| Compound | MBC/MFC (MRSA ON184 [1]) | MBC/MFC (S. epidermidis SK9) | MBC/MFC (Proteus mirabilis ON153 [3]) | MBC/MFC [4] | MBC/MFC [5] | MBC/MFC (Serratia marcescens SK2 [6]) | MBC/MFC [7] | MBC/MFC (Escherichia coli ON29 [8]) | MBC/MFC [9] | MBC/MFC (Candida albicans SK4b [10]) | biofilm eradication at the MBEC alone [11] | MIC (C. albicans ON47) [% w/v] | biofilm eradication concentration in combination (FBEC) [2] [% w/v] | biofilm eradication concentration in combination (FBEC) (Escherichia coli SK2) [% w/v] | microbicidal concentration in combination (Proteus mirabilis ON153 [12]) [% w/v] | microbicidal concentration in combination [13] [% w/v] | microbicidal concentration in combination [14] [% w/v] | microbicidal concentration in combination (Serratia marcescens SK2 [15]) [% w/v] | microbicidal concentration in combination [16] [% w/v] | microbicidal concentration in combination (Escherichia coli ON29 [17]) [% w/v] | also measured |
| --- | --- | --- | --- | --- | --- | --- | --- | --- | --- | --- | --- | --- | --- | --- | --- | --- | --- | --- | --- | --- | --- |
| [H]/N=C(\N/C(=N/[H])NCCCCCCNC(=N)NC(=N)Nc1ccc(Cl)cc1)Nc1ccc(Cl)cc1 [Chlorhexidine HCl, 1,6-bis(4′-chlorophenylbiguanide) hexane] | 1.6 µg/mL | 0.8 µg/mL | 50 µg/mL | 0.8 µg/mL | 0.8 µg/mL | 25 µg/mL | 3.125 µg/mL | 0.8 µg/mL | 3.125 µg/mL | 3.125 µg/mL | failed to eradicate | – | – | – | – | – | – | – | – | – | MIC (C. albicans ON47; Candida albicans, read-out: MIC): 1.6 µg/mL; Chlorhexidine HCl biofilm eradication concentration in combination (FBEC) ([2]; EDTA + chlorhexidine HCl): 3.125 µg/mL; Chlorhexidine HCl biofilm eradication concentration in combination (FBEC) (Escherichia coli SK2; EDTA + chlorhexidine HCl): 3.125 µg/mL; Chlorhexidine HCl microbicidal concentration in combination (Proteus mirabilis ON153 [12]; EDTA + chlorhexidine HCl): 1.6 µg/mL; Chlorhexidine HCl microbicidal concentration in combination ([13]; EDTA + chlorhexidine HCl): 0.4 µg/mL; Chlorhexidine HCl microbicidal concentration in combination ([14]; EDTA + chlorhexidine HCl): 0.2 µg/mL; Chlorhexidine HCl microbicidal concentration in combination (Serratia marcescens SK2 [15]; EDTA + chlorhexidine HCl): 1.6 µg/mL; Chlorhexidine HCl microbicidal concentration in combination ([16]; EDTA + chlorhexidine HCl): 0.4 µg/mL; Chlorhexidine HCl microbicidal concentration in combination (Escherichia coli ON29 [17]; EDTA + chlorhexidine HCl): 0.2 µg/mL; Chlorhexidine HCl microbicidal concentration in combination ([18]; EDTA + chlorhexidine HCl): 1.6 µg/mL; Chlorhexidine HCl microbicidal concentration in combination (Candida albicans SK4b [19]; EDTA + chlorhexidine HCl): 0.8 µg/mL; Chlorhexidine HCl concentration in combination (MRSA ON184 [20]; EDTA + chlorhexidine HCl): 0.2 µg/mL |
| O=C([O-])CN(CCN(CC(=O)[O-])CC(=O)[O-])CC(=O)[O-].[Na+].[Na+].[Na+].[Na+] [EDTA, tetrasodium EDTA] | 2 % w/v | 0.5 % w/v | 2 % w/v | 0.5 % w/v | 1 % w/v | 2 % w/v | 1 % w/v | 1 % w/v | 1 % w/v | 1 % w/v | failed to eradicate | 1 | 0.063 | 0.125 | 0.063 | 0.031 | 0.25 | 0.25 | 0.125 | 0.25 | EDTA biofilm eradication concentration in combination (FBEC) ([2]; EDTA + chlorhexidine HCl): 0.125 % w/v; EDTA biofilm eradication concentration in combination (FBEC) (Escherichia coli SK2; EDTA + chlorhexidine HCl): 0.031 % w/v; EDTA microbicidal concentration in combination (Proteus mirabilis ON153 [12]; EDTA + chlorhexidine HCl): 0.125 % w/v; EDTA microbicidal concentration in combination ([13]; EDTA + chlorhexidine HCl): 0.25 % w/v; EDTA microbicidal concentration in combination ([14]; EDTA + chlorhexidine HCl): 0.008 % w/v; EDTA microbicidal concentration in combination (Serratia marcescens SK2 [15]; EDTA + chlorhexidine HCl): 0.125 % w/v; EDTA microbicidal concentration in combination ([16]; EDTA + chlorhexidine HCl): 0.031 % w/v; EDTA microbicidal concentration in combination (Escherichia coli ON29 [17]; EDTA + chlorhexidine HCl): 0.008 % w/v; EDTA microbicidal concentration in combination ([18]; EDTA + chlorhexidine HCl): 0.031 % w/v; microbicidal concentration in combination [18]: 0.031 % w/v; EDTA microbicidal concentration in combination (Candida albicans SK4b [19]; EDTA + chlorhexidine HCl): 0.125 % w/v; microbicidal concentration in combination (Candida albicans SK4b [19]): 0.25 % w/v; EDTA concentration in combination (MRSA ON184 [20]; EDTA + chlorhexidine HCl): 0.008 % w/v; concentration in combination (MRSA ON184 [20]): 0.015 % w/v |
| CCO [Ethanol, ethanol] | 25 % w/v | 12.5 % w/v | 12.5 % w/v | 6.25 % w/v | 25 % w/v | 12.5 % w/v | 6.25 % w/v | 25 % w/v | 12.5 % w/v | 6.25 % w/v | failed to eradicate | 6.25 | 0.8 | 1.6 | 6.25 | 1.6 | 3.125 | 6.25 | 1.6 | 6.25 | microbicidal concentration in combination [18]: 6.25 % w/v; microbicidal concentration in combination (Candida albicans SK4b [19]): 3.125 % w/v; concentration in combination (MRSA ON184 [20]): 0.4 % w/v |
